System: K86415-001-R-J1-PDC complex spheroids, viability
Assay: Anticancer human tumor K86415-001-R-J1-PDC patient-derived lung adenocarcinoma cell line growth inhibition [RAS]
Conditions: curve of first compound; second compound 1 µM
Summary of the method: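 Agents were tested in combination matrices in half-log decrements from a top concentration at or near clinical Cmax (10 microM if undetermined). Targets were multi-cell spheroids of tumour lines plus HUVEC and MSC stromal cells.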
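Further: spheroids exposed to agents for seven days before readout.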

`CC(C)n1nc(-c2ccc3oc(N)nc3c2)c2c(N)ncnc21` + C=CC(=O)N1CCN(c2nc(OCC3CCCN3C)nc3c(F)c(-c4nc(N)cc(C)c4C(F)(F)F)c(Cl)cc23)C(C)C1 and `C[C@@H](NC(=O)c1ncnc(N)c1Cl)c1ncc(C(=O)Nc2cc(C(F)(F)F)c(Cl)cn2)s1` + C=CC(=O)N1CCN(c2nc(OCC3CCCN3C)nc3c(F)c(-c4nc(N)cc(C)c4C(F)(F)F)c(Cl)cc23)C(C)C1 cannot be ordered by IC50: under 0.316 nM for the first, under 31.6 nM for the second.

`CC(Nc1ccc2c(c1)OCCn1cc(N3C(=O)OCC3C(F)F)nc1-2)C(N)=O` (stereo unspecified) + C=CC(=O)N1CCN(c2nc(OCC3CCCN3C)nc3c(F)c(-c4nc(N)cc(C)c4C(F)(F)F)c(Cl)cc23)C(C)C1 and `O=C(c1ccc(F)c(F)c1Nc1ccc(I)cc1F)N1CC(O)([C@@H]2CCCCN2)C1` + C=CC(=O)N1CCN(c2nc(OCC3CCCN3C)nc3c(F)c(-c4nc(N)cc(C)c4C(F)(F)F)c(Cl)cc23)C(C)C1 cannot be ordered by IC50: under 31.6 nM for the first, under 3.16 nM for the second.

Same assay, conditions: second compound 0.00316 µM; first compound 0.000316 µM; stronger effect = lower value

For `CC(C)n1nc(-c2ccc3oc(N)nc3c2)c2c(N)ncnc21` + C=CC(=O)N1CCN(c2nc(OCC3CCCN3C)nc3c(F)c(-c4nc(N)cc(C)c4C(F)(F)F)c(Cl)cc23)C(C)C1, the viability, T/C was 18.4%.

Same assay, conditions: second compound 0.00316 µM; first compound 0.001 µM; stronger effect = lower value

Work on `CC(C)n1nc(-c2ccc3oc(N)nc3c2)c2c(N)ncnc21` + C=CC(=O)N1CCN(c2nc(OCC3CCCN3C)nc3c(F)c(-c4nc(N)cc(C)c4C(F)(F)F)c(Cl)cc23)C(C)C1 yielded a viability, T/C of 17.5%.

Same assay, conditions: second compound 0.00316 µM; first compound 0.00316 µM; stronger effect = lower value

Compared with `CC(C)n1nc(-c2ccc3oc(N)nc3c2)c2c(N)ncnc21` + C=CC(=O)N1CCN(c2nc(OCC3CCCN3C)nc3c(F)c(-c4nc(N)cc(C)c4C(F)(F)F)c(Cl)cc23)C(C)C1, `O=C(c1ccc(F)c(F)c1Nc1ccc(I)cc1F)N1CC(O)([C@@H]2CCCCN2)C1` + C=CC(=O)N1CCN(c2nc(OCC3CCCN3C)nc3c(F)c(-c4nc(N)cc(C)c4C(F)(F)F)c(Cl)cc23)C(C)C1 is higher in viability, T/C: 16.8% for the first, 18.7% for the second.

Same assay, conditions: second compound 0.00316 µM; first compound 0.01 µM; stronger effect = lower value

Compared with `CC(C)n1nc(-c2ccc3oc(N)nc3c2)c2c(N)ncnc21` + C=CC(=O)N1CCN(c2nc(OCC3CCCN3C)nc3c(F)c(-c4nc(N)cc(C)c4C(F)(F)F)c(Cl)cc23)C(C)C1, `O=C(c1ccc(F)c(F)c1Nc1ccc(I)cc1F)N1CC(O)([C@@H]2CCCCN2)C1` + C=CC(=O)N1CCN(c2nc(OCC3CCCN3C)nc3c(F)c(-c4nc(N)cc(C)c4C(F)(F)F)c(Cl)cc23)C(C)C1 is lower in viability, T/C: 19.4% for the first, 15.5% for the second.

Same assay, conditions: second compound 0.00316 µM; first compound 0.0316 µM; stronger effect = lower value

First: CC(C)NCC(C(=O)N1CCN(c2ncnc3c2C(C)CC3O)CC1)c1ccc(Cl)cc1 (stereo unspecified) + C=CC(=O)N1CCN(c2nc(OCC3CCCN3C)nc3c(F)c(-c4nc(N)cc(C)c4C(F)(F)F)c(Cl)cc23)C(C)C1
Second: O=C(c1ccc(F)c(F)c1Nc1ccc(I)cc1F)N1CC(O)([C@@H]2CCCCN2)C1 + C=CC(=O)N1CCN(c2nc(OCC3CCCN3C)nc3c(F)c(-c4nc(N)cc(C)c4C(F)(F)F)c(Cl)cc23)C(C)C1
The viability, T/C of the first is higher: 15.9% for the first, 11.7% for the second.

First: CC(C)n1nc(-c2ccc3oc(N)nc3c2)c2c(N)ncnc21 + C=CC(=O)N1CCN(c2nc(OCC3CCCN3C)nc3c(F)c(-c4nc(N)cc(C)c4C(F)(F)F)c(Cl)cc23)C(C)C1
Second: C[C@@H](NC(=O)c1ncnc(N)c1Cl)c1ncc(C(=O)Nc2cc(C(F)(F)F)c(Cl)cn2)s1 + C=CC(=O)N1CCN(c2nc(OCC3CCCN3C)nc3c(F)c(-c4nc(N)cc(C)c4C(F)(F)F)c(Cl)cc23)C(C)C1
The viability, T/C of the first is higher: 31.8% for the first, 24.3% for the second.

Compound `CC(Nc1ccc2c(c1)OCCn1cc(N3C(=O)OCC3C(F)F)nc1-2)C(N)=O` (stereo unspecified) + C=CC(=O)N1CCN(c2nc(OCC3CCCN3C)nc3c(F)c(-c4nc(N)cc(C)c4C(F)(F)F)c(Cl)cc23)C(C)C1 has a viability, T/C of 12.4%.

Same assay, conditions: second compound 0.00316 µM; first compound 0.1 µM; stronger effect = lower value

Compared with `CC(C)NCC(C(=O)N1CCN(c2ncnc3c2C(C)CC3O)CC1)c1ccc(Cl)cc1` (stereo unspecified) + C=CC(=O)N1CCN(c2nc(OCC3CCCN3C)nc3c(F)c(-c4nc(N)cc(C)c4C(F)(F)F)c(Cl)cc23)C(C)C1, `O=C(c1ccc(F)c(F)c1Nc1ccc(I)cc1F)N1CC(O)([C@@H]2CCCCN2)C1` + C=CC(=O)N1CCN(c2nc(OCC3CCCN3C)nc3c(F)c(-c4nc(N)cc(C)c4C(F)(F)F)c(Cl)cc23)C(C)C1 is lower in viability, T/C: 17.9% for the first, 11.2% for the second.

Going from `CC(C)n1nc(-c2ccc3oc(N)nc3c2)c2c(N)ncnc21` + C=CC(=O)N1CCN(c2nc(OCC3CCCN3C)nc3c(F)c(-c4nc(N)cc(C)c4C(F)(F)F)c(Cl)cc23)C(C)C1 to `C[C@@H](NC(=O)c1ncnc(N)c1Cl)c1ncc(C(=O)Nc2cc(C(F)(F)F)c(Cl)cn2)s1` + C=CC(=O)N1CCN(c2nc(OCC3CCCN3C)nc3c(F)c(-c4nc(N)cc(C)c4C(F)(F)F)c(Cl)cc23)C(C)C1, the viability, T/C rises from 12.5% to 23.5%.

`CC(Nc1ccc2c(c1)OCCn1cc(N3C(=O)OCC3C(F)F)nc1-2)C(N)=O` (stereo unspecified) + C=CC(=O)N1CCN(c2nc(OCC3CCCN3C)nc3c(F)c(-c4nc(N)cc(C)c4C(F)(F)F)c(Cl)cc23)C(C)C1 was tested, and the viability, T/C was 11%.

Same assay, conditions: second compound 0.00316 µM; first compound 0.316 µM; stronger effect = lower value

First: CC(C)NCC(C(=O)N1CCN(c2ncnc3c2C(C)CC3O)CC1)c1ccc(Cl)cc1 (stereo unspecified) + C=CC(=O)N1CCN(c2nc(OCC3CCCN3C)nc3c(F)c(-c4nc(N)cc(C)c4C(F)(F)F)c(Cl)cc23)C(C)C1
Second: O=C(c1ccc(F)c(F)c1Nc1ccc(I)cc1F)N1CC(O)([C@@H]2CCCCN2)C1 + C=CC(=O)N1CCN(c2nc(OCC3CCCN3C)nc3c(F)c(-c4nc(N)cc(C)c4C(F)(F)F)c(Cl)cc23)C(C)C1
The viability, T/C of the first is higher: 13.7% for the first, 6.3% for the second.

Compared with `CC(Nc1ccc2c(c1)OCCn1cc(N3C(=O)OCC3C(F)F)nc1-2)C(N)=O` (stereo unspecified) + C=CC(=O)N1CCN(c2nc(OCC3CCCN3C)nc3c(F)c(-c4nc(N)cc(C)c4C(F)(F)F)c(Cl)cc23)C(C)C1, `C[C@@H](NC(=O)c1ncnc(N)c1Cl)c1ncc(C(=O)Nc2cc(C(F)(F)F)c(Cl)cn2)s1` + C=CC(=O)N1CCN(c2nc(OCC3CCCN3C)nc3c(F)c(-c4nc(N)cc(C)c4C(F)(F)F)c(Cl)cc23)C(C)C1 is higher in viability, T/C: 9.71% for the first, 23.3% for the second.

Same assay, conditions: second compound 0.00316 µM; first compound 1 µM; stronger effect = lower value

Compared with `CC(C)NCC(C(=O)N1CCN(c2ncnc3c2C(C)CC3O)CC1)c1ccc(Cl)cc1` (stereo unspecified) + C=CC(=O)N1CCN(c2nc(OCC3CCCN3C)nc3c(F)c(-c4nc(N)cc(C)c4C(F)(F)F)c(Cl)cc23)C(C)C1, `CC(Nc1ccc2c(c1)OCCn1cc(N3C(=O)OCC3C(F)F)nc1-2)C(N)=O` (stereo unspecified) + C=CC(=O)N1CCN(c2nc(OCC3CCCN3C)nc3c(F)c(-c4nc(N)cc(C)c4C(F)(F)F)c(Cl)cc23)C(C)C1 is higher in viability, T/C: 11.4% for the first, 13.9% for the second.

Reference: PubChem BioAssay AID2060893 (Molecular Pharmacology Branch, DTP, NCI, 2025)
